The NIST ThermoML archive (doi:10.1021/je200811n)
± gives the expanded uncertainty stated by the source.

Settings: Hot wire method

What does the source list for `C=C(F)C(F)(F)F` [2,3,3,3-tetrafluoro-1-propene]?
thermal conductivity (342.27 K, 1904 kPa, Gas): 0.01971 ± 0.00034 W/m/K; thermal conductivity (342.28 K, 12111 kPa, Liquid): 0.06144 ± 0.00069 W/m/K; thermal conductivity (342.29 K, 302 kPa, Gas): 0.0175 ± 0.00058 W/m/K; thermal conductivity (342.29 K, 1736 kPa, Gas): 0.01924 ± 0.00034 W/m/K; thermal conductivity (342.29 K, 1903 kPa, Gas): 0.01966 ± 0.00034 W/m/K; thermal conductivity (342.32 K, 459 kPa, Gas): 0.01763 ± 0.00059 W/m/K; thermal conductivity (342.32 K, 17157 kPa, Liquid): 0.06503 ± 0.00073 W/m/K; thermal conductivity (342.34 K, 1573 kPa, Gas): 0.01875 ± 0.00033 W/m/K; thermal conductivity (342.34 K, 2096 kPa, Liquid): 0.05065 ± 0.00058 W/m/K; thermal conductivity (342.36 K, 21715 kPa, Liquid): 0.06785 ± 0.00076 W/m/K; thermal conductivity (342.4 K, 8195 kPa, Liquid): 0.05822 ± 0.00066 W/m/K; thermal conductivity (342.43 K, 1404 kPa, Gas): 0.01834 ± 0.00032 W/m/K; thermal conductivity (342.44 K, 12112 kPa, Liquid): 0.06137 ± 0.00069 W/m/K; thermal conductivity (342.47 K, 949 kPa, Gas): 0.01781 ± 0.00059 W/m/K; thermal conductivity (342.47 K, 1242 kPa, Gas): 0.01809 ± 0.00032 W/m/K; thermal conductivity (342.5 K, 813 kPa, Gas): 0.01767 ± 0.00059 W/m/K; thermal conductivity (342.5 K, 1096 kPa, Gas): 0.01796 ± 0.00032 W/m/K; thermal conductivity (342.51 K, 1904 kPa, Gas): 0.01989 ± 0.00035 W/m/K; thermal conductivity (342.52 K, 1841 kPa, Gas): 0.01962 ± 0.00034 W/m/K; thermal conductivity (342.52 K, 1904 kPa, Gas): 0.01982 ± 0.00035 W/m/K; thermal conductivity (342.52 K, 5181 kPa, Liquid): 0.05511 ± 0.00063 W/m/K; thermal conductivity (342.54 K, 939 kPa, Gas): 0.01779 ± 0.00059 W/m/K; thermal conductivity (342.55 K, 1735 kPa, Gas): 0.01923 ± 0.00034 W/m/K; thermal conductivity (342.56 K, 303 kPa, Gas): 0.01766 ± 0.00059 W/m/K; thermal conductivity (342.56 K, 8193 kPa, Liquid): 0.05802 ± 0.00066 W/m/K; thermal conductivity (342.6 K, 17155 kPa, Liquid): 0.06501 ± 0.00073 W/m/K; thermal conductivity (342.61 K, 1572 kPa, Gas): 0.01878 ± 0.00033 W/m/K; thermal conductivity (342.63 K, 201 kPa, Gas): 0.01782 ± 0.00059 W/m/K; thermal conductivity (342.63 K, 21712 kPa, Liquid): 0.06777 ± 0.00076 W/m/K; thermal conductivity (342.66 K, 458 kPa, Gas): 0.01768 ± 0.00059 W/m/K; thermal conductivity (342.66 K, 2094 kPa, Liquid): 0.05079 ± 0.00058 W/m/K; thermal conductivity (342.69 K, 5181 kPa, Liquid): 0.05482 ± 0.00062 W/m/K; thermal conductivity (342.72 K, 1403 kPa, Gas): 0.01842 ± 0.00033 W/m/K; thermal conductivity (342.73 K, 12110 kPa, Liquid): 0.06135 ± 0.00069 W/m/K; thermal conductivity (342.75 K, 102 kPa, Gas): 0.01803 ± 0.0006 W/m/K; thermal conductivity (342.77 K, 1903 kPa, Gas): 0.01985 ± 0.00035 W/m/K; thermal conductivity (342.77 K, 17154 kPa, Liquid): 0.06488 ± 0.00073 W/m/K; thermal conductivity (342.78 K, 1241 kPa, Gas): 0.01818 ± 0.00032 W/m/K; thermal conductivity (342.78 K, 1841 kPa, Gas): 0.01962 ± 0.00034 W/m/K; thermal conductivity (342.79 K, 948 kPa, Gas): 0.01785 ± 0.0006 W/m/K; thermal conductivity (342.79 K, 1904 kPa, Gas): 0.01984 ± 0.00035 W/m/K; thermal conductivity (342.79 K, 21708 kPa, Liquid): 0.06775 ± 0.00076 W/m/K; thermal conductivity (342.82 K, 1095 kPa, Gas): 0.01798 ± 0.00032 W/m/K; thermal conductivity (342.83 K, 812 kPa, Gas): 0.01775 ± 0.00059 W/m/K; thermal conductivity (342.83 K, 1734 kPa, Gas): 0.01925 ± 0.00034 W/m/K; thermal conductivity (342.86 K, 939 kPa, Gas): 0.01784 ± 0.0006 W/m/K; thermal conductivity (342.86 K, 8191 kPa, Liquid): 0.05808 ± 0.00066 W/m/K; thermal conductivity (342.89 K, 1571 kPa, Gas): 0.01877 ± 0.00033 W/m/K; thermal conductivity (342.9 K, 12107 kPa, Liquid): 0.06122 ± 0.00069 W/m/K; thermal conductivity (342.91 K, 302 kPa, Gas): 0.01773 ± 0.00059 W/m/K; thermal conductivity (343.01 K, 201 kPa, Gas): 0.01784 ± 0.0006 W/m/K; thermal conductivity (343.01 K, 5178 kPa, Liquid): 0.05499 ± 0.00063 W/m/K; thermal conductivity (343.02 K, 458 kPa, Gas): 0.0177 ± 0.00059 W/m/K; thermal conductivity (343.03 K, 1402 kPa, Gas): 0.01843 ± 0.00033 W/m/K; thermal conductivity (343.03 K, 1903 kPa, Gas): 0.01984 ± 0.00035 W/m/K; thermal conductivity (343.05 K, 8190 kPa, Liquid): 0.05781 ± 0.00065 W/m/K; thermal conductivity (343.05 K, 17151 kPa, Liquid): 0.06493 ± 0.00073 W/m/K; thermal conductivity (343.06 K, 1840 kPa, Gas): 0.01962 ± 0.00034 W/m/K; thermal conductivity (343.06 K, 1904 kPa, Gas): 0.01984 ± 0.00035 W/m/K; thermal conductivity (343.06 K, 21708 kPa, Liquid): 0.06763 ± 0.00075 W/m/K; thermal conductivity (343.1 K, 1240 kPa, Gas): 0.01819 ± 0.00032 W/m/K; thermal conductivity (343.12 K, 946 kPa, Gas): 0.01784 ± 0.0006 W/m/K; thermal conductivity (343.12 K, 1733 kPa, Gas): 0.0192 ± 0.00034 W/m/K; thermal conductivity (343.14 K, 1094 kPa, Gas): 0.01802 ± 0.00032 W/m/K; thermal conductivity (343.15 K, 102 kPa, Gas): 0.01805 ± 0.0006 W/m/K; thermal conductivity (343.15 K, Liquid): 0.05091 ± 0.0004 W/m/K; thermal conductivity (343.17 K, 2093 kPa, Liquid): 0.05051 ± 0.00059 W/m/K; thermal conductivity (343.19 K, 810 kPa, Gas): 0.0178 ± 0.00059 W/m/K; thermal conductivity (343.2 K, 938 kPa, Gas): 0.0179 ± 0.0006 W/m/K; thermal conductivity (343.2 K, 12105 kPa, Liquid): 0.06126 ± 0.00069 W/m/K; thermal conductivity (343.21 K, 1570 kPa, Gas): 0.01879 ± 0.00033 W/m/K; thermal conductivity (343.21 K, 5176 kPa, Liquid): 0.05461 ± 0.00062 W/m/K; thermal conductivity (343.25 K, 17149 kPa, Liquid): 0.06474 ± 0.00073 W/m/K; thermal conductivity (343.25 K, 21706 kPa, Liquid): 0.06757 ± 0.00075 W/m/K; thermal conductivity (343.29 K, 302 kPa, Gas): 0.01776 ± 0.00059 W/m/K; thermal conductivity (343.29 K, 606 kPa, Gas): 0.01775 ± 0.00059 W/m/K; thermal conductivity (343.35 K, 1401 kPa, Gas): 0.01847 ± 0.00033 W/m/K; thermal conductivity (343.36 K, 8188 kPa, Liquid): 0.05795 ± 0.00066 W/m/K; thermal conductivity (343.39 K, 2092 kPa, Liquid): 0.05007 ± 0.00058 W/m/K; thermal conductivity (343.4 K, 200 kPa, Gas): 0.01785 ± 0.0006 W/m/K; thermal conductivity (343.41 K, 459 kPa, Gas): 0.01776 ± 0.00059 W/m/K; thermal conductivity (343.41 K, 12104 kPa, Liquid): 0.06108 ± 0.00069 W/m/K; thermal conductivity (343.43 K, 1239 kPa, Gas): 0.01822 ± 0.00032 W/m/K; thermal conductivity (343.48 K, 945 kPa, Gas): 0.01791 ± 0.0006 W/m/K; thermal conductivity (343.49 K, 1093 kPa, Gas): 0.01807 ± 0.00032 W/m/K; thermal conductivity (343.53 K, 5176 kPa, Liquid): 0.05477 ± 0.00062 W/m/K; thermal conductivity (343.55 K, 809 kPa, Gas): 0.01783 ± 0.0006 W/m/K; thermal conductivity (343.55 K, 937 kPa, Gas): 0.01797 ± 0.0006 W/m/K; thermal conductivity (343.56 K, 102 kPa, Gas): 0.01807 ± 0.0006 W/m/K; thermal conductivity (343.58 K, 8186 kPa, Liquid): 0.0576 ± 0.00067 W/m/K; thermal conductivity (343.68 K, 606 kPa, Gas): 0.0178 ± 0.00059 W/m/K; thermal conductivity (343.69 K, 302 kPa, Gas): 0.01781 ± 0.00059 W/m/K; thermal conductivity (343.72 K, 2091 kPa, Liquid): 0.05023 ± 0.00058 W/m/K; thermal conductivity (343.77 K, 5174 kPa, Liquid): 0.05432 ± 0.00065 W/m/K; thermal conductivity (343.8 K, 200 kPa, Gas): 0.0179 ± 0.0006 W/m/K; thermal conductivity (343.8 K, 459 kPa, Gas): 0.0178 ± 0.00059 W/m/K; thermal conductivity (343.99 K, 2090 kPa, Liquid): 0.05015 ± 0.00058 W/m/K; thermal conductivity (344 K, 103 kPa, Gas): 0.01811 ± 0.0006 W/m/K; thermal conductivity (344.09 K, 302 kPa, Gas): 0.01783 ± 0.00059 W/m/K; thermal conductivity (344.23 K, 199 kPa, Gas): 0.01797 ± 0.0006 W/m/K; thermal conductivity (344.46 K, 103 kPa, Gas): 0.01816 ± 0.00061 W/m/K
